Experimental findings from ChEMBL document CHEMBL3112471, “Synthesis and evaluation of anti-tubercular activity of 6-(4-substitutedpiperazin-1-yl) phenanthridine analogues” (Eur J Med Chem, 2014) are described below.

Series [1] relates to Mycobacterium tuberculosis. Description: Antitubercular activity against Mycobacterium tuberculosis H37Rv after 5 days by microplate Alamar Blue assay. Format: functional. The note with it: 120 h.
Series [2] can be described thus: Cytotoxicity against mouse RAW264.7 cells at 50 uM after 72 hrs by MTT assay. As to conditions: read-out: INH. Format: cell-based.
Series [3] can be described thus: Selectivity index, ratio of IC50 for mouse RAW264.7 cells to MIC for Mycobacterium tuberculosis H37Rv. The note with it: read-out: Selectivity Index. Format: toxicity.
A further series deals with RAW264.7. The series is described as follows: Cytotoxicity against mouse RAW264.7 cells after 72 hrs by MTT assay. As to conditions: RAW264.7, 72 h. In kind it is cell-based.

Molecules are shown by their SMILES. Converted amounts (≈) assume the structure as drawn.

`c1ccc(CCN2CCN(c3nc4ccccc4c4ccccc34)CC2)cc1`: in series [1], the MIC99 came out at 6.25 µg/mL (≈ 17 µM). In turn, `c1ccc(C(c2ccccc2)N2CCN(c3nc4ccccc4c4ccccc34)CC2)cc1` returned an MIC99 in series [1] of 3.12 µg/mL (≈ 7.27 µM). Turning to `c1cnc(N2CCN(c3nc4ccccc4c4ccccc34)CC2)nc1`, in series [2], the cytotoxicity at 72 h, 50 µM turned out to be 18.2%. This molecule registered an MIC99 in series [1] of 1.56 µg/mL (≈ 4.57 µM). For the same molecule, the selectivity ratio in series [3] is greater than 25. The IC50 in the series on RAW264.7 is greater than 40 µg/mL. The matching figures for `c1ccc(N2CCN(c3nc4ccccc4c4ccccc34)CC2)nc1`: 16.4%, 1.56 µg/mL (≈ 4.58 µM), greater than 25 and greater than 40 µg/mL. `CCN1CCN(c2nc3ccccc3c3ccccc23)CC1` yielded an MIC99 in series [1] of 6.25 µg/mL (≈ 21.4 µM).

Turning to `Oc1cccc(N2CCN(c3nc4ccccc4c4ccccc34)CC2)c1`, in series [1], the MIC99 was found to be 3.12 µg/mL (≈ 8.79 µM). `O=C(O)c1cn(C2CC2)c2cc(N3CCN(C(=O)CN4CCN(c5nc6ccccc6c6ccccc56)CC4)CC3)c(F)cc2c1=O` displayed an MIC99 in series [1] of 12.5 µg/mL (≈ 19.7 µM). The molecule `C=Cc1ccc(CN2CCN(c3nc4ccccc4c4ccccc34)CC2)cc1` had an MIC99 in series [1] of 25 µg/mL (≈ 65.9 µM). `C(=C\c1ccccc1)/CN1CCN(c2nc3ccccc3c3ccccc23)CC1` gave an MIC99 in series [1] of 25 µg/mL (≈ 65.9 µM).

The molecule `c1ccc2c(c1)nc(N1CCNCC1)c1ccccc12` came in with an MIC99 in series [1] of 25 µg/mL (≈ 94.9 µM). For the molecule `Cc1cccc(N2CCN(c3nc4ccccc4c4ccccc34)CC2)c1`, the MIC99 in series [1] was found to be 6.25 µg/mL (≈ 17.7 µM). In series [1], `Clc1ccc(N2CCN(c3nc4ccccc4c4ccccc34)CC2)cc1` yielded an MIC99 of 50 µg/mL (≈ 134 µM). In series [1], `Clc1ccccc1N1CCN(c2nc3ccccc3c3ccccc23)CC1` displayed an MIC99 of 6.25 µg/mL (≈ 16.7 µM).

Turning to `O=[N+]([O-])c1ccc(N2CCN(c3nc4ccccc4c4ccccc34)CC2)cc1`, the cytotoxicity at 72 h, 50 µM in series [2] came to 21.4%. For the same molecule, the MIC99 in series [1] stood at 1.56 µg/mL (≈ 4.06 µM). Besides, the selectivity ratio in series [3] was greater than 25. Further, the IC50 with RAW264.7 was greater than 40 µg/mL.

For the molecule `COc1cccc(N2CCN(c3nc4ccccc4c4ccccc34)CC2)c1`, in series [1], the MIC99 is 12.5 µg/mL (≈ 33.8 µM). As for `N#Cc1ccccc1N1CCN(c2nc3ccccc3c3ccccc23)CC1`, the MIC99 in series [1] turned out to be 50 µg/mL (≈ 137 µM). As for `COc1ccc2nc(C)cc(SCc3ccc(C(C)(C)C)cc3)c2c1`, the MIC in series [1] was 0.01 µg/mL (≈ 0.0284 µM). As for `CN1CCN(c2nc3ccccc3c3ccccc23)CC1`, the MIC99 in series [1] turned out to be 6.25 µg/mL (≈ 22.5 µM). For the molecule `COc1ccc2cc(/C=N/Nc3ccnc4cc(OC)ccc34)ccc2c1`, the minimal inhibitory concentration (MIC) in series [1] amounted to 0.22 µg/mL (≈ 0.616 µM). For the molecule `NNC(=O)c1ccncc1` [ISONIAZID], in series [1], the MIC99 turned out to be 0.36 µg/mL (≈ 2.63 µM). Regarding `CO[C@H]1/C=C/O[C@@]2(C)Oc3c(C)c(O)c4c(O)c(c(/C=N/N5CCN(C)CC5)c(O)c4c3C2=O)NC(=O)/C(C)=C\C=C\[C@H](C)[C@H](O)[C@@H](C)[C@@H](O)[C@@H](C)[C@H](OC(C)=O)[C@@H]1C` [RIFAMPIN], the MIC99 in series [1] came out at 0.02 µg/mL (≈ 0.0243 µM).
